{
  "source": "patent US12453759B2",
  "about": "“Di-thioester cationic lipids” (TRANSLATE BIO, INC., priority 2019, dated 2025)",
  "test_system": "hEPO protein expression",
  "assay": "In vivo expression of hEPO after IM injection of hEPO mRNA lipid nanoparticles (serum ELISA)",
  "conditions": "LNP with hEPO mRNA, cationic lipid, DMG-PEG2000, cholesterol, DOPE, single IM injection into gastrocnemius, 0.1 ug, male BALB/c mice, FIG. 1",
  "description": "Lipid nanoparticle formulations comprising human erythropoietin (hEPO) mRNA, a cationic Lipid, DMG-PEG2000, cholesterol and DOPE were administered intramuscularly to study mRNA delivery and resultant hEPO expression. Male BALB/c mice at 6-8 weeks old are given a single injection of the LNP formulations into the gastrocnemius muscle at a dosage level of 0.1 ug. Blood samples were collected at 6 and 24 hours post-dose. hEPO protein expression levels were measured in the sera samples by ELISA and presented in FIG. 1.",
  "data": [
    {"molecule": "CCCCCCCCCCC(O)CN(CCSC(=O)c1ccc(C(=O)SCCN(CC(O)CCCCCCCCCC)CC(O)CCCCCCCCCC)cc1)CC(O)CCCCCCCCCC", "note": "(stereo not drawn) [Compound 98]", "values": [
      {"measurement": "in vivo protein production (hEPO protein expression levels in sera)", "setting": "6 hours after administration", "result": "high levels of in vivo protein production"},
      {"measurement": "in vivo protein production (hEPO protein expression levels in sera)", "setting": "24 hours after administration", "result": "high levels of in vivo protein production"}
    ]},
    {"molecule": "CCCCCCCCC(O)CN(CCSC(=O)[C@H]1CC[C@H](C(=O)SCCN(CC(O)CCCCCCCC)CC(O)CCCCCCCC)CC1)CC(O)CCCCCCCC", "note": "(stereo partly drawn) [Compound 79]", "values": [
      {"measurement": "in vivo protein production (hEPO protein expression levels in sera)", "setting": "6 hours after administration", "result": "high levels of in vivo protein production"}
    ]}
  ]
}
